{"source": "paper PMC5402990", "about": "(PLoS Neglected Tropical Diseases, 2017)", "key": {"EBOV/Mak": {"test_system": "EBOV/Mak", "assay": "microbe, parasite or virus in culture", "format": "cell-based, Ebola virus", "details": "for IC50: Zaire ebolavirus"}, "MARV": {"test_system": "MARV", "assay": "organism not typed", "format": "cell-based, Marburg virus"}, "EBOV GP VLPs": {"test_system": "EBOV GP VLPs", "format": "cell-based, Ebola virus"}, "EBOV trVLPs": {"test_system": "EBOV trVLPs", "format": "cell-based, Ebola virus"}, "[1]": {"test_system": "EBOV VLP trafficking in BSC-1 cells", "format": "cell-based, Grivet monkey"}, "[2]": {"test_system": "endosome acidification in BSC-1 cells", "format": "cell-based, Grivet monkey"}, "cathepsin B and L": {"test_system": "cathepsin B and L", "format": "cell-based, Grivet monkey", "details": "pH 5"}, "[3]": {"test_system": "cholesterol levels in endolysosomes of BSC-1 cells", "format": "cell-based, Grivet monkey"}, "Huh 7 cells": {"test_system": "Huh 7 cells", "details": "human"}, "[4]": {"details": "mouse, in vivo"}, "in vivo": {"assay": "in vivo", "details": "mouse, ip, 10 mg/kg"}, "in vitro [5]": {"assay": "in vitro", "details": "human"}, "in vitro [6]": {"assay": "in vitro", "details": "African green monkey"}, "in vitro [7]": {"assay": "in vitro", "details": "human", "remark": "listed apart in the source"}, "[8]": {"details": "human, in vivo; cited from earlier work"}}, "note": "Where a name gives a salt, the structure may show the parent alone. Read-outs that look alike come from different tables or passages of the source.", "data": [{"smiles": "Cc1cccc(/C=N/Nc2cc(N3CCOCC3)nc(OCCc3ccccn3)n2)c1", "note": "[Apilimod, apilimod]", "values": [{"measurement": "fold higher activity than the positive control, toremifene citrate", "setting": "EBOV/Mak", "value": "6- to 247 fold"}, {"measurement": "fold less potent in Huh 7 cells", "setting": "EBOV/Mak", "value": "~ 10 fold"}, {"measurement": "IC50", "setting": "EBOV/Mak", "value": 10, "unit": "nM"}, {"measurement": "IC50", "setting": "EBOV/Mak; 48 h", "value": "9 ± 1", "unit": "nM"}, {"measurement": "IC50", "setting": "EBOV/Mak; Huh-7", "value": 140, "unit": "nM"}, {"measurement": "IC50", "setting": "EBOV/Mak; Huh-7, 48 h", "value": "136 ± 40", "unit": "nM"}, {"measurement": "IC50", "setting": "EBOV/Mak; Vero C1008", "value": "15 to 25", "unit": "nM"}, {"measurement": "IC50", "setting": "EBOV/Mak; Vero C1008, 48 h", "value": "25 ± 10", "unit": "nM"}, {"measurement": "IC50", "setting": "MARV", "value": 10, "unit": "nM"}, {"measurement": "fold higher activity than the positive control", "setting": "MARV", "value": "38- to 1160 fold"}, {"measurement": "IC50", "setting": "MARV; 48 h", "value": "10 ± 4", "unit": "nM"}, {"measurement": "IC50", "setting": "MARV; Huh-7, 48 h", "value": "140 ± 50", "unit": "nM"}, {"measurement": "IC50", "setting": "MARV; Vero C1008", "value": "15 to 25", "unit": "nM"}, {"measurement": "IC50", "setting": "MARV; Vero C1008, 48 h", "value": "15 ± 3", "unit": "nM"}, {"measurement": "EBOV VLP entry", "setting": "EBOV GP VLPs", "value": "blocks EBOV VLP entry into BSC-1 cells with the same approximate dose-dependency as its effects in HEK 293T/17 cells"}, {"measurement": "EBOV particle (VLP) entry", "setting": "EBOV GP VLPs", "value": "blocked"}, {"measurement": "EBOV particle replication (trVLP infection)", "setting": "EBOV trVLPs", "value": "blocked"}, {"measurement": "EBOV VLP trafficking to NPC1+ endolysosomes (Manders colocalization)", "setting": "[1]", "value": "blocked EBOV VLP trafficking to NPC1^+ endolysosomes to a similar extent as nocodazole"}, {"measurement": "VLP colocalization with EEA1+ endosomes", "setting": "[1]", "value": "caused EBOV VLPs to accumulate in EEA1^+ endosomes"}, {"measurement": "VLP colocalization with NPC1 over time course", "setting": "[1]", "value": "at no point during this time course were VLPs seen to associate with NPC1^+ endolysosomes"}, {"measurement": "effect on endosome acidification", "setting": "[2]", "value": "no detectable effect on endosome acidification"}, {"measurement": "effect on the activity of cathepsin B and L", "setting": "cathepsin B and L", "value": "no apparent direct effect"}, {"measurement": "cholesterol levels in endolysosomes", "setting": "[3]", "value": "did not cause a detectable increase"}, {"measurement": "CC50", "setting": "Huh 7 cells", "value": "500 ± 100", "unit": "nM"}, {"measurement": "Cmax relative to IC50 in hMDMs", "setting": "[4]", "value": "~ 250 times"}, {"measurement": "Cmax", "setting": "in vivo", "value": 2530, "unit": "nM"}, {"measurement": "CC50", "setting": "in vitro [5]", "value": "480 ± 80", "unit": "nM"}, {"measurement": "CC50", "setting": "in vitro [6]", "value": "> 2000", "unit": "nM"}, {"measurement": "CC50", "setting": "in vitro [7]", "value": "> 2000", "unit": "nM"}, {"measurement": "tolerability in humans", "setting": "[8]", "value": "well-tolerated"}]}, {"smiles": "CO/C1=C\\C(C)=C\\[C@@H](C)[C@@H](O)[C@@H](C)C/C(C)=C/C=C/[C@H](OC)[C@@H]([C@@H](C)[C@@H](O)[C@H](C)[C@@]2(O)C[C@@H](O)[C@H](C)[C@@H](C(C)C)O2)OC1=O", "note": "[Bafilomycin]", "values": [{"measurement": "effect on endosome acidification", "setting": "[2]", "value": "blocks endosome acidification"}]}, {"smiles": "CN(C)CCOc1ccc(/C(=C(/CCCl)c2ccccc2)c2ccccc2)cc1", "note": "[Toremifene citrate]", "values": [{"measurement": "IC50", "setting": "EBOV/Mak", "value": 2470, "unit": "nM"}, {"measurement": "IC50", "setting": "EBOV/Mak; Huh-7", "value": 730, "unit": "nM"}, {"measurement": "IC50", "setting": "EBOV/Mak; Vero C1008", "value": 1670, "unit": "nM"}, {"measurement": "IC50", "setting": "MARV", "value": 11600, "unit": "nM"}, {"measurement": "IC50", "setting": "MARV; Huh-7", "value": 5380, "unit": "nM"}, {"measurement": "IC50", "setting": "MARV; Vero C1008", "value": 2360, "unit": "nM"}]}, {"smiles": "COC(=O)Nc1nc2ccc(C(=O)c3cccs3)cc2[nH]1", "note": "[nocodazole, Nocodazole]", "values": [{"measurement": "EBOV VLP trafficking to NPC1+ endolysosomes (Manders colocalization)", "setting": "[1]", "value": "blocked EBOV VLP trafficking to NPC1^+ endolysosomes to a similar extent as nocodazole"}]}]}
